Source: patent publication US20200239530A1, “COMPOUNDS AND METHODS OF MODULATING PROTEIN DEGRADATION” (Vividion Therapeutics, Inc., priority 2017, published 2020)
Where two headings read alike, the source gives them in different places.

Target: T1, AREL1 Apoptosis-resistant E3 ubiquitin protein ligase 1 (Homo sapiens, UniProt O15033)
T1 construct: endogenous in cells
T1 sequence (O15033 1-823): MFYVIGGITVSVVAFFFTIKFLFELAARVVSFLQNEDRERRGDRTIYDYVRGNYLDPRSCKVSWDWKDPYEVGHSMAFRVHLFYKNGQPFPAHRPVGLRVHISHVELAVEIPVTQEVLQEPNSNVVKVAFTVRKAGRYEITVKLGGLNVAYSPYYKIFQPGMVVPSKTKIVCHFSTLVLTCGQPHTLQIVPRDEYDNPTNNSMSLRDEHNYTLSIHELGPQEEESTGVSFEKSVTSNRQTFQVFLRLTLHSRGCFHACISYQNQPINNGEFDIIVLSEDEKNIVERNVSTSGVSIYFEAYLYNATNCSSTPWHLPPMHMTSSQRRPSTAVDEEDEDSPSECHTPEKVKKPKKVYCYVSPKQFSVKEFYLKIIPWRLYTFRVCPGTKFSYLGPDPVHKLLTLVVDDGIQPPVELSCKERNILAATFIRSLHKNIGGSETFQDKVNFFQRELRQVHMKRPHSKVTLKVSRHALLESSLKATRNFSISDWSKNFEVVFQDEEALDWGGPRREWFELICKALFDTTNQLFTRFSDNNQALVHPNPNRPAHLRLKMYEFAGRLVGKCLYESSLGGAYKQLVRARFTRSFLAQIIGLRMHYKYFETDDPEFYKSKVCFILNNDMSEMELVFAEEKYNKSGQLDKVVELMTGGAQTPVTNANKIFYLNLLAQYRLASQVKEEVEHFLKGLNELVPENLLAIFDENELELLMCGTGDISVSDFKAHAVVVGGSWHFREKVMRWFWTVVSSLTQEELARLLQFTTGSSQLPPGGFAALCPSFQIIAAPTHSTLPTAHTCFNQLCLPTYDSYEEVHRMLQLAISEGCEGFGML
Experiment: Cysteine liganding, probe competition
Format: binding
Procedure: Cells were resuspended in cold PBS on ice and sonicated with a probe sonicator to achieve lysis. 200 μL of lysate containing 5 mg/ml proteome was treated with 2 μL of 100× compound stock in a 2-mL deep-well plate. The treated lysate was subsequently incubate at 25° C. for 1 hr with shaking at 600 rpm. The treated lysate was further incubated with 2 μL of 10 mM desthiobiotin iodoacetamide probe at 25° C. for 1 hr with shaking at 600 rpm. Next, the lysate was further treat with 20 μL of solution of PBS containing 11 mM MgSO4 and 2.5% Turbonuclease stock and incubated at 25° C. for 20 minutes with shaking at 600 rpm. 1.7 mL ice-cold acetone was added to each well and incubated at −20° C. for 2 hr, followed by max speed (4200 rpm) spin for 45 min. Acetone was then decanted and the plates were blotted to remove acetone. The plates were then dried in open air for 20 minutes. After drying, the plates were then covered with foil seal and stored at −80° C. overnight.
The next day, samples were re-suspended in 90 μL of solution of 9M urea, 50 mM ammonium bicarbonate and 10 mM DTT by incubating at 65C for 20 min with shaking at 1500 rpm. Next, samples were cooled to 37° C. and then 10 μL of 500 mM iodoacetamide solution (92.48 mg/ml) was added. The samples were then incubated at 37° C. for 30 min with shaking at 600 rpm.
ZEBA desalting plates were equilibrated 4 times using 250 μL of 2M urea, 50 mM ammonium bicarbonate solution followed by centrifugation at 1500 rpm for 2 minutes. After equilibration was complete, samples were applied to ZEBA desalting plate and spin at 1500 rpm for 2 min on top of 1 mL 96-well deep-well collection plate to buffer exchange samples. 4 μL of solution containing 25 mM CaCl2 and 0.25 mg/mL trypsin was added to the plate and the plate was then incubated at 37° C. for 2 hrs with shaking at 600 rpm. 300 μL of solution containing 5% high-capacity streptavidin agarose slurry in 25 mM Tris-HCl pH 7.5, 150 mM NaCl, and 0.1% NP-40 then added. The plate was incubated at 25° C. for 2 hrs with shaking at 600 rpm. Samples were transferred to 25 μm filter plate and spin at 1000 rpm for 2 min. Samples were then washed 3 times with 0.75 mL of wash buffer (25 mM Tris-HCl pH 7.5, 150 mM NaCl, and 0.1% NP-40) followed by washing 3 times with 0.75 mL PBS, and then 4 times with 0.75 mL water. After the washing step, samples were eluted into polypropylene 96-well plate by addition of 250 µL of 50% MeCN/water, 0.1% formic acid and allowed to gravity drip for 10 min, followed by centrifugation at 1000 rpm for 2 min. Speedvac was used to dry the plates at about 45° C. for […]. Then the plates were covered with foil seal and stored at −20° C.
Samples were resuspended by addition of 20 μl of 12.5% ACN, 0.1% formic acid solution, covered with foil seal, and incubated at 42° C. for 10 minutes with shaking at 600 rpm. Then add 30 μL of 0.1% formic acid solution was added and the plate was covered and incubated at 42° C. for 10 minutes with shaking at 600 rpm. Seal plate was then sealed with a 96-well silicon mat for analysis.

For `C=CC(=O)N(c1ccccc1)c1ccc(Br)cc1` [KB05], the inhibition at 100 µM (100 uM, UniProt O15033, read-out: KB05_100 uM_percent_inhibition) was 69% and the inhibition at 500 µM (500 uM, UniProt O15033, read-out: KB05_500 uM_percent_inhibition) was 92%.
For `O=C(CCl)Nc1cc(C(F)(F)F)cc(C(F)(F)F)c1` [KBO3], the “KB03_100 uM_percent_inhibition” value (100 uM, UniProt O15033) was 57%, the “KB03_500 uM_percent_inhibition” value (500 uM, UniProt O15033) was 87% and the “100 Max” value (uniprot O15033) was 56.8. It also gave a 100 ave (uniprot O15033) of 49.1, a 500 ave (uniprot O15033) of 55.1 and a 500 Max (uniprot O15033, unit assumed) of 55.1%.
For `COc1ccc2c(c1)CCCN2C(=O)CCl` [KB02], the inhibition at 100 µM (100 uM, UniProt O15033, read-out: KB02_100 uM_percent_inhibition) was 77%, the inhibition at 500 µM (500 uM, UniProt O15033, read-out: KB02_500 uM_percent_inhibition) was 96% and the Liganded (AREL1 Res# 382, uniprot O15033) was “YES”.
